Consider three compounds from patent publication US20250346782A1 (W. L. Gore & Associates, Inc., priority 2022, published 2025).

Data set [1] in a line: Nitric oxide (NO) release, Berkeley nitric oxide test strips (Evaluation Method Ai). The data set is classed as physicochemical. The settings on record: 37° C.; for onset of release of NO from the coating / time at which steady state of NO release / nitrite anion concentration is reached: coating of compound alone on ePTFE film, PBS 10 mM with 100 μM EDTA; for delayed release of NO from the coating / time at which steady state concentration of nitrite anion is reached: coating with VDF-HFP fluoropolymer on ePTFE film, PBS. The method, then:
The ability of a chemical entity as described herein, or surface having a coating comprising a chemical entity as described herein, to release nitric oxide (NO) is assessed using commercially available Berkely nitric oxide test strips (“Berkeley Life Nitric Oxide Saliva Test Strips”). Instructions for use for such test strips are provided with the packaging of the Berkely nitric oxide test strips, and additionally are described in WO2013/023217A1 and WO2014/039794A2 (incorporated herein by reference).The test strips provide a semi-quantitative measure of NO-derived analytes (primarily aqueous nitrite anion) rather than NO itself, because as is known to the art (Ignarro et al., 1993), aqueous NO has a very short half-life of only seconds, whereas aqueous nitrite anion (which derives from aqueous NO) has a half-life of several hours. As such, the nitrite anion is an appropriate surrogate to measure aqueous NO concentrations. The test strips comprise a nitrite detection pad containing dry chemical reagents responsive to different nitric oxide analytes, thereby, indicating concentrations of nitric oxide. The test strips are capable of detecting a concentration range of the nitric oxide analyte from 0 to 400 μmol/L nitrite with visibly distinct intensities of colorimetric sub-ranges expressed as a red colour (i.e., approximately 700 nm wavelength) of increasing intensity, qualitatively corresponding to micromolarity, specifically, but not limited to: 0 μM, 1 μM to 25 μM, 25 μM to 100 μM, 100 μM to 200 μM, 200 μM to 350 μM, and greater than 400 μM nitrite.
The surface having a coating to be assessed is submerged in a test solution of PBS, 10.0 mM, pH 7.4, with 100 μM EDTA. NO concentration is assessed at given timepoints by dipping the test strip in the solution. After 5 seconds, the test strip is removed, the strip is folded over and the sample pad is gently pressed against the test pad and held for 10 seconds. The ends are separated and compared to the Berkeley Test Nitric Oxide Scale, where the visibly distinct colorimetric sub-ranges comprise 6 subjective levels of intensity of red wavelengths (i.e., approximately 700 nm wavelength), corresponding to 0 μM, 25 μM, 100 μM, 200 μM, 350 μM, and 400 μM of nitric oxide-derived analytes, depending upon the qualitative intensity of red subjectively observed by a user. […] As shown in the Examples below, because each strip is assigned to one of the 6 subjective intensity levels (the sixth being no response), the resulting NO release plot has discrete jumps rather than a continuous curve, although in practice continuous release is expected to be occurring.
In separate experiments, chloroform solutions of S-nitrosothiol-containing compound 16 (Example 19) and compound 17 (Example 20) were deposited dropwise onto ePTFE films secured on embroidery hoops, allowing the solvents to evaporate as the solutions were deposited. Once the solvents had evaporated and the resulting coatings were dry, 10 mL of a PBS buffer solution comprising 10 mM phosphate buffered saline with 100 μM EDTA, was poured over the individual coated films in round, polyethylene containers with screw-cap lids and placed in a 37° C. water bath. The PBS buffer solutions were tested periodically for NO release according to Evaluation Method Ai. The NO release profile for the film coated with compound 16 is shown in FIG. 4, and for the film coated with compound 17, in FIG. 5.
In separate experiments, acetone solutions of 50 mg of the S-nitrosothiol-containing compound 16 (Example 19), compound 18 (Example 22), and copolymer 20 (Example 23) were added to individual mixtures of 200 mg of VDF-HFP fluoropolymer in 10 mL of acetone. The green mixtures were then poured onto 3-inch disks of ePTFE films secured on embroidery hoops, and the solvents evaporated under a stream of argon. […]

Experiment in data set [2]: as above
The data set is classed as physicochemical. The settings on record: PBS, 37° C.

Where [3] appears, read: Example 30, FIG. 12: silicone coating on ePTFE film.
[4] abbreviates: coating with VDF-HFP fluoropolymer on Pebax nylon film.
[5] abbreviates: coating with VDF-HFP fluoropolymer on ePE film.
[6] abbreviates: coating with VDF-HFP fluoropolymer on stainless steel foil.

For the compound `CC(C)(SN=O)C(NC(=O)CCCCC(=O)NC(C(=O)NCc1ccccc1)C(C)(C)SN=O)C(=O)NCc1ccccc1` (stereo not shown) [Compound 16], in data set [1], the “onset of release of NO from the coating” value is recorded as “immediate release”, the “time at which steady state of NO release / nitrite anion concentration is reached” value stood at 5 days, the “delayed release of NO from the coating” value stood at 2 days and the “time at which steady state concentration of nitrite anion is reached” value was determined as 8 days.

As to `CC(C)(SN=O)C(NC(=O)CCCCC(=O)NC(C(=O)Nc1ccccc1)C(C)(C)SN=O)C(=O)Nc1ccccc1` (stereo not shown) [Compound 17, S,S′-((adipoylbis(azanediyl))bis(2-methyl-4-oxo-4-(phenylamino)butane-3,2-diyl)) dinitrothioite], in data set [1], the “onset of release of NO from the coating” value is on record as “immediate release” and the “time at which steady state of NO release / nitrite anion concentration is reached” value was 7 days.

With `CC(C)(SN=O)C(NC(=O)c1cc(C(=O)NC(C(=O)NCc2ccccc2)C(C)(C)SN=O)cc(C(=O)NC(C(=O)NCc2ccccc2)C(C)(C)SN=O)c1)C(=O)NCc1ccccc1` (stereo not shown) [Compound 18, S,S′,S″-(((benzene-1,3,5-tricarbonyl)tris(azanediyl))tris(4-(benzylamino)-2-methyl-4-oxobutane-3,2-diyl)) trinitrothioite], the “delayed release of NO from the coating” value in data set [1] was 2 days; in data set [2] (setting [4]), 4 days; in data set [2] (setting [5]) it was 2 days; in data set [2] (setting [6]), 9 days. The “time at which steady state concentration of nitrite anion is reached” value in data set [1] is recorded as 12 days; in data set [2] (setting [3]), 7 days; in data set [2] (setting [4]) it was 13 days; in data set [2] (setting [5]), 15 days; in data set [2] (setting [6]), 14 days. Besides, the “onset of release of NO from the coating” value in data set [2] (setting [3]) is “immediate first release”.
